Experimental data reported in US12668845B2, “Methods for predicting drug responsiveness in cancer patients” (Allarity Therapeutics Europe ApS, priority 2018, dated 2026).

Key:
[1] = test system: IM-9; experiment: Growth inhibition of cell lines treated with 2X-121; type: cell-based; settings: Homo sapiens; cell line IM-9, origin B lymphoblast; read-out: Measured growth inhibition IC50
[2] = test system: HEC-265; experiment: as above; type: cell-based; settings: cell line HEC-265, origin Endometrial; read-out: Measured growth inhibition IC50
[3] = test system: Namalwa; experiment: as above; type: cell-based; settings: cell line Namalwa, origin Burkitts lymphoma; read-out: Measured growth inhibition IC50
[4] = test system: NCI-H209; experiment: as above; type: cell-based; settings: Homo sapiens; cell line NCI-H209, origin SCLC; read-out: Measured growth inhibition IC50
[5] = test system: HEC-1B; experiment: as above; type: cell-based; settings: Homo sapiens; cell line HEC-1B, origin Endometrial; read-out: Measured growth inhibition IC50
[6] = test system: SNG-M; experiment: as above; type: cell-based; settings: cell line SNG-M, origin Endometrial; read-out: Measured growth inhibition IC50
[7] = test system: MDA-MB-436; experiment: as above; type: cell-based; settings: Homo sapiens; cell line MDA-MB-436, origin Breast; read-out: Measured growth inhibition IC50
[8] = test system: KLE; experiment: as above; type: cell-based; settings: Homo sapiens; cell line KLE, origin Endometrial; read-out: Measured growth inhibition IC50
[9] = test system: HCC70; experiment: as above; type: cell-based; settings: Homo sapiens; cell line HCC70, origin Breast; read-out: Measured growth inhibition IC50
[10] = test system: Pfeiffer; experiment: as above; type: cell-based; settings: Homo sapiens; cell line Pfeiffer, origin DLBCL (GC); read-out: Measured growth inhibition IC50
[11] = test system: M14; experiment: as above; type: cell-based; settings: Homo sapiens; cell line M14, origin Melanoma; read-out: Measured growth inhibition IC50
[12] = test system: NCI-H69; experiment: as above; type: cell-based; settings: Homo sapiens; cell line NCI-H69, origin SCLC; read-out: Measured growth inhibition IC50
[13] = test system: SF-295; experiment: as above; type: cell-based; settings: Homo sapiens; cell line SF-295, origin GBM; read-out: Measured growth inhibition IC50
[14] = test system: NCI-H929; experiment: as above; type: cell-based; settings: Homo sapiens; cell line NCI-H929, origin Myeloma; read-out: Measured growth inhibition IC50
[15] = test system: AN3 CA; experiment: as above; type: cell-based; settings: Homo sapiens; cell line AN3 CA, origin Endometrial; read-out: Measured growth inhibition IC50
[16] = test system: A549; experiment: as above; type: cell-based; settings: Homo sapiens; cell line A549, origin NSCLC; read-out: Measured growth inhibition IC50
[17] = test system: NCI-H146; experiment: as above; type: cell-based; settings: Homo sapiens; cell line NCI-H146, origin SCLC; read-out: Measured growth inhibition IC50
[18] = test system: MV-4-11; experiment: as above; type: cell-based; settings: Homo sapiens, MV4-11; cell line MV-4-11, origin AML; read-out: Measured growth inhibition IC50
[19] = test system: HEC-50B; experiment: as above; type: cell-based; settings: cell line HEC-50B, origin Endometrial; read-out: Measured growth inhibition IC50
[20] = test system: Toledo; experiment: as above; type: cell-based; settings: Homo sapiens; cell line Toledo, origin DLBCL (GC); read-out: Measured growth inhibition IC50
[21] = test system: Jeko-1; experiment: as above; type: cell-based; settings: Homo sapiens; cell line Jeko-1, origin MCL; read-out: Measured growth inhibition IC50
[22] = test system: HEC-1; experiment: as above; type: cell-based; settings: Homo sapiens; cell line HEC-1, origin Endometrial; read-out: Measured growth inhibition IC50
[23] = test system: MCF-7; experiment: as above; type: cell-based; settings: Homo sapiens, MCF7; cell line MCF-7, origin Breast; read-out: Measured growth inhibition IC50
[24] = test system: NCI-H82; experiment: as above; type: cell-based; settings: Homo sapiens; cell line NCI-H82, origin SCLC; read-out: Measured growth inhibition IC50
[25] = test system: K562; experiment: as above; type: cell-based; settings: Homo sapiens; cell line K562, origin Erythroleukemia from CML Pt; read-out: Measured growth inhibition IC50
[26] = test system: MFE-296; experiment: as above; type: cell-based; settings: Homo sapiens; cell line MFE-296, origin Endometrial; read-out: Measured growth inhibition IC50
[27] = test system: MDA-MB-157; experiment: as above; type: cell-based; settings: Homo sapiens; cell line MDA-MB-157, origin Breast; read-out: Measured growth inhibition IC50
[28] = in vivo; cited from earlier work
[29] = test system: THP-1; experiment: Growth inhibition of cell lines treated with 2X-121; type: cell-based; settings: Homo sapiens; cell line THP-1, origin AML; read-out: Measured growth inhibition IC50
[30] = test system: HCT-15; experiment: as above; type: cell-based; settings: Homo sapiens; cell line HCT-15, origin Colon; read-out: Measured growth inhibition IC50
[31] = test system: Hs578T; experiment: as above; type: cell-based; settings: Homo sapiens, Hs-578T; cell line Hs578T, origin Breast; read-out: Measured growth inhibition IC50
[32] = test system: MDA-MB-231; experiment: as above; type: cell-based; settings: Homo sapiens; cell line MDA-MB-231, origin Breast; read-out: Measured growth inhibition IC50
[33] = test system: MDA-MB-468; experiment: as above; type: cell-based; settings: Homo sapiens; cell line MDA-MB-468, origin Breast; read-out: Measured growth inhibition IC50
[34] = test system: HEC-151; experiment: as above; type: cell-based; settings: cell line HEC-151, origin Endometrial; read-out: Measured growth inhibition IC50

O=c1[nH]nc2c3c(cccc13)N=C(CN1Cc3ccccc3C1)N2 [2X-121, 8-(isoindolin-2-ylmethyl)-2,9-dihydro-3H-pyridazino[3,4,5-de]quinazolin-3-one]
IC50 [1]: 2100 nM
IC50 [2]: 2400 nM
IC50 [3]: 2500 nM
IC50 [4]: 620 nM
IC50 [5]: 7270 nM
IC50 [6]: 1360 nM
IC50 [7]: 190 nM
IC50 [8]: 2590 nM
IC50 [9]: 9300 nM
IC50 [10]: 710 nM
IC50 [11]: 6700 nM
IC50 [12]: 1330 nM
IC50 [13]: 2600 nM
IC50 [14]: 5200 nM
IC50 [15]: 1490 nM
IC50 [16]: 2200 nM
IC50 [17]: 930 nM
IC50 [18]: 950 nM
IC50 [19]: 3450 nM
IC50 [20]: 1600 nM
IC50 [21]: 1900 nM
IC50 [22]: 1280 nM
IC50 [23]: 1900 nM
IC50 [24]: 470 nM
IC50 [25]: 4300 nM
IC50 [26]: 670 nM
IC50 [27]: 6800 nM
brain penetration [28]: brain penetrable
IC50 [29]: 5400 nM
IC50 [30]: 2200 nM
IC50 [31]: 9600 nM
IC50 [32]: 25000 nM
IC50 [33]: 2500 nM
IC50 [34]: 1440 nM
